From publication PMC9763021, “Comprehensive Assessment of Biomolecular Interactions of Morpholine-Based Mixed Ligand Cu(II) and Zn(II) Complexes of 2,2′-Bipyridine as Potential Anticancer and SARS-CoV-2 Agents: A Synergistic Experimental and Structure-Based Virtual Screening” (Bioinorganic Chemistry and Applications, 2022)

Key:
[1] = tested on: calf thymus deoxyribonucleic acid; assay: DNA binding by viscometric (hydrodynamic) technique
Description: The titrations were performed for all compounds including EB (control) at 20, 40, 60, 80, and 100 μM concentrations. In the Ostwald viscometer, these substances were also separately treated with the calf thymus deoxyribonucleic acid solution (100 μM).
Hydrodynamic findings can be utilized to assess the alteration of DNA length and afford details on the binding tendency between small molecules and biomolecules. As a result of their sensitivity to DNA contour length changes, which implies that the average distance between each monomer (cl = 0.338 nm/bp for B-form DNA), the DNA binding properties of all test compounds were further validated by this method. According to the Lerman concept, interactions between small molecules and deoxyribonucleic acid via covalent and noncovalent bindings are often possible. When a chemical substance interacts with the deoxyribonucleic acid double helix, the contour length of DNA increases via intercalation and leads to an increase in the absolute viscosity. Meanwhile, if DNA viscosity is not affected during interactions, which leads to the responsible for the major/minor groove binding due to H-bond/Van der Waals interactions, electrostatic, partial, or nonclassical interaction modes. Therefore, analyzing the binding modes provides additional support for the findings as well as a crucial aspect of the conventional intercalation concept. In this case, it was observed that the absolute viscosity increased consistently along with the concentration of each substance at the fixed DNA concentration. The DNA must extend to facilitate the binding of ligands, which causes a considerable rise in DNA viscosity while small molecules intercalate into the DNA helix. According to equation (12), an increase in relative viscosity denotes an intercalation-induced lengthening of the deoxyribonucleic acid base pair. While adhering to the principle of excluding the nearest neighbors, intercalation entails inserting a planar molecule into a DNA base pair without rupturing the hydrogen bonds that hold the base pairs together. This causes a diminution in the DNA helical twist and an extension of the DNA. Moreover, a molecule can be presumed to bind to deoxyribonucleic acid by intercalation between base pairs if it causes lengthening and unwinding of the deoxyribonucleic acid base pairs. In this case, the relative viscosity of DNA gradually increases, while the […]. Moreover, the affinity interactions and their slope values were observed from the relative specific viscosity (η⁄η0)^1/3 plotted straight line contrasting [Compound]/[DNA], and absolute specific viscosity of deoxyribonucleic acid in the absence or presence of samples was evaluated using equation (12) (Table 3). […] The evaluated slope findings were in the subsequent sequence: (EB) 1.215 > (1a) 0.915 > (2a) 0.630 > (HL) 0.490 (Figure S21 and Table 3). […] Due to the existence of the 2,2′-bipyridine and morpholine-fused aromatic planar systems, compounds can interact with deoxyribonucleic acid robustly via intercalation. The outcomes were excellent in accordance with the observed outcomes of absorption spectral properties.(11) η/η0^1/3=tcomplex−t0/t0/tDNA−t0/t0, where η and η0 are represented as specific viscosity of DNA in the presence complex and specific viscosity of DNA alone, and t0, tDNA, and tcomplex are represented as the average flow time of the Tris-HCl buffer solution, the average flow time of DNA alone solution, and the average flow time of DNA interacted with the samples, respectively. Error limit is ±2.5% (P < 0.025).

Pseudomonas aeruginosa = assay: Agar disc diffusion, strain D; format: cell-based; design: (inhibition %): concentration or dose not given beside the values; conditions: for diameter of the clear zone inhibition: control = 6 mm
Description: In-vitro antimicrobial properties were evaluated for all samples by the agar disc diffusion method towards different fungal and bacterial strains. Additionally, the reported inhibition zone values were comparatively analyzed with the standard antifungal drugs ketoconazole and amphotericin B as well as the standard antibiotic medications streptomycin and amikacin.
The current research has a curious focus on the in vitro antimicrobial properties of biological systems because these studies are crucial for developing effective antibacterial and antifungal medications. […] It can also be spelled out based on the chelation theory proposed by Overtone and Tweedy. Chelation theory points out that the partial exchanging of the positive charge of the metal center with donor moieties, and overlap of the ligand orbitals will reduce the greater degree of the metal ion's polarity, which ultimately rises the delocalization of π and d electrons over the full chelated ring system. By raising the size of the metal ion due to the retarding of polarization, chelation may also enhance the complexes' lipophilic characteristics, which further stimulate the lipid membrane permeability and break down the bacteria' enzymes responsible for cell wall formation, therefore slowing down the regular cell processes. By preventing the production of cell walls/proteins/DNA, including by obstructing folate metabolism and the cytoplasmic membrane, antimicrobial drugs frequently either fully eliminate microbes or only prevent their cell growth. Additionally, the samples' mode of action may be employed in disrupting the cell's respiration process by forming an H-bond during the morpholine-fused iminic group coordinated with the active metal center of its components, inhibiting proliferation of the cell. […] The difference in the antimicrobial efficacy of some of the compounds towards various microorganisms influences on the impermeability of the cells of the germs or the diversity of ribosomes of the microbes. The % of the inhibition of all substances is estimated from (45) (Table 9).
(A, B, C, D, and E are represented as gram negative bacteria species Escherichia coli, Salmonella enteric serovar typhi, Salmonella enteric serovar typhi, Pseudomonas aeruginosa, and Shigella flexneri, respectively. F & G are denoted as gram positive bacteria species Staphylococcus aureus and Bacillus cereus. H, I, and J are represented as fungal strains Aspergillus niger, Candida albicans, and Mucor indicus. Standard drugs for bacterial strains: Amikacin & Streptomycin Standard drugs for fungal strains: Ketoconazole and Amphotericin B. [Control (DMSO) = 6 mm].(44) Inhibition %=T–C/T×100, where T and C are represented as the diameter of microbial growth of the sample plates and the control plate (6 mm), respectively. Error limits ±2.5–5.0% (P ≤ 0.05).

[2] = Superoxide scavenging assay; format: biochemical; conditions: for % Inhibition superoxide: 590 nm
Description: All samples were evaluated for their scavenging ability with the help of UV-visible spectrophotometer at different concentrations of 40, 80, 120, 160, 200, and 240 μM [6, 28]. While performing the antioxidant properties for the DPPH, hydroxyl, superoxide, and nitric oxide radical scavenging, the absorbance at 517, 230, 590, and 546 nm, respectively, was closely observed. In addition, the observed IC50 values of all samples were compared with ascorbic acid.
A vital enzyme catalyst in the body's defence against free radicals, superoxide dismutase (SOD) quickly and efficiently reduces toxicity and cellular damage by exchanging superoxide with water (or) harmless molecules. The % of inhibition for all substances was analyzed at 590 nm. The outcomes were obtained in the subsequent order: (ascorbic acid) 84.85 > (1a) 67.17 > (2a) 58.18 > (HL) 50.42.

Row | SMILES | Slope of (η/η0)^1/3 vs [Compound]/[DNA] [1] | Relative specific viscosity (η/η0)^1/3 ([1]; [complex]/[DNA] = 0.2) | Relative specific viscosity (η/η0)^1/3 ([1]; [complex]/[DNA] = 0.4) | Relative specific viscosity (η/η0)^1/3 ([1]; [complex]/[DNA] = 0.6) | Relative specific viscosity (η/η0)^1/3 ([1]; [complex]/[DNA] = 0.8) | Relative specific viscosity (η/η0)^1/3 ([1]; [complex]/[DNA] = 1.0) | (inhibition %) (Pseudomonas aeruginosa) [%] | diameter of the clear zone inhibition (Pseudomonas aeruginosa) [mm] | % Inhibition superoxide ([2]; 40 µM) [%] | % Inhibition superoxide ([2]; 80 µM) [%] | % Inhibition superoxide ([2]; 120 µM) [%] | % Inhibition superoxide ([2]; 160 µM) [%] | % Inhibition superoxide ([2]; 200 µM) [%] | % Inhibition superoxide ([2]; 240 µM) [%] | IC50 [2] [µM]
1 | Oc1ccccc1N=Cc1ccc(N2CCOCC2)cc1 [(HL), 2-(4-morpholinobenzylideneamino)phenol] | 0.490 | 0.61 | 0.67 | 0.75 | 0.85 | 1.01 | 25 | 08 | 05.23 | 10.74 | 18.85 | 33.55 | 40.91 | 50.42 | –
2 | [Cu+2].[O-]c1ccccc1N=Cc1ccc(N2CCOCC2)cc1.[O-]c1ccccc1N=Cc1ccc(N2CCOCC2)cc1.c1ccc(-c2ccccn2)nc1 [(1a), [Cu(L)2(bpy)]] | 0.915 | 0.88 | 1.11 | 1.22 | 1.38 | 1.66 | 33 | 09 | 08.32 | 16.45 | 31.86 | 47.69 | 60.03 | 67.17 | 200
3 | [O-]c1ccccc1N=Cc1ccc(N2CCOCC2)cc1.[O-]c1ccccc1N=Cc1ccc(N2CCOCC2)cc1.[Zn+2].c1ccc(-c2ccccn2)nc1 [(2a), [Zn(L)2(bpy)]] | 0.630 | 0.74 | 0.81 | 0.87 | 1.03 | 1.26 | 33 | 09 | 06.32 | 12.67 | 24.14 | 40.20 | 51.92 | 58.18 | –
